Source: paper PMC6589951 (Therapeutic Advances in Medical Oncology, 2019)
Entries after “also recorded” stand apart in the source; their conditions may differ.

Assays:
[1] = test system: patients with advanced solid tumors; experiment: exposure, dosing compliance and actions taken with study drug; type: in vivo, human
[2] = pexidartinib plasma pharmacokinetics, cycle 1 day 15; type: in vivo, human; conditions: day 15, steady state
CSF-1R = conditions: read-out: IC50 CSF-1R; ref Investigator's Brochure, 14; cited from earlier work
PVNS/TGCT = conditions: 1000 mg daily; cited from earlier work
CD14dim/CD16+ monocytes = experiment: blood CD14dim/CD16+ monocyte levels; type: in vivo, human; conditions: doses as low as 800 mg daily
osteoclast precursors = conditions: RANK-L and CSF-1 dependent manner; ref Investigator's Brochure, 14; cited from earlier work
[3] = test system: patients with advanced solid tumors; experiment: phase Ib dose escalation 3+3: DLT, MTD, RP2D; type: in vivo, human
mammary carcinoma = conditions: mouse model of mammary carcinoma, cited from earlier work

| Compound | patients with paclitaxel dose reductions ([1]; Eight patients) [%] | omitted paclitaxel doses with AEs as reason ([1]; in vivo) [%] | patients with paclitaxel temporarily withheld ([1]; in vivo) [%] | dose reductions as an immediate action following pexidartinib-related AE ([1]; in vivo) [patients] | patients missing doses of pexidartinib due to AEs of any cause ([1]; in vivo) | patients with dose modifications of pexidartinib ([1]; in vivo) [%] | patients with pexidartinib dose reductions ([1]; in vivo) | dose at which pexidartinib plasma concentration and exposure reached saturation [2] [mg] | IC50 (CSF-1R) [nM] | Median PFS (PVNS/TGCT) | time in which PRs occurred (PVNS/TGCT) [months] | reduction of CD14dim/CD16+ monocytes in the peripheral blood (CD14dim/CD16+ monocytes) | differentiation of osteoclast precursors (osteoclast precursors) | recommended phase II dose (RP2D) ([3]; pexidartinib in combination with weekly paclitaxel 80 mg/m^2) [mg/day] | maximum tolerated dose ([3]; pexidartinib up to 1600 mg/day with weekly paclitaxel) | survival of study animals (mammary carcinoma; following chemotherapy) | tumor growth (mammary carcinoma; following chemotherapy) | TAM recruitment following chemotherapy (mammary carcinoma) |
| --- | --- | --- | --- | --- | --- | --- | --- | --- | --- | --- | --- | --- | --- | --- | --- | --- | --- | --- |
| CC(=O)O[C@H]1C(=O)[C@@]2(C)[C@H]([C@H](OC(=O)c3ccccc3)[C@]3(O)C[C@H](OC(=O)[C@H](O)[C@@H](NC(=O)c4ccccc4)c4ccccc4)C(C)=C1C3(C)C)[C@]1(OC(C)=O)CO[C@@H]1C[C@@H]2O [paclitaxel, reference compound] | 15 | 54 | 39 | – | – | – | – | – | – | – | – | – | – | – | – | – | – | – |
| FC(F)(F)c1ccc(CNc2ccc(Cc3c[nH]c4ncc(Cl)cc34)cn2)cn1 [pexidartinib] | – | – | – | […] | […] | […] | […] | […] | […] | not reached | […] | near complete reduction | inhibit differentiation | […] | no maximum tolerated dose was achieved; also recorded: No maximum tolerated dose was determined; also recorded: No maximum tolerated dose was reached | improved survival | slower tumor growth | abrogate TAM recruitment |
